By EC50 is commonly meant the concentration giving half of the maximal effect.

In patent publication US11760754B2, “Heterocyclic mitochondrial activity inhibitors and uses thereof” (UNIVERSITÉ DE MONTRÉAL, priority 2017, dated 2023) one finds EC50 data, which are given here for 28 molecules.

The subject of one test is OCI-AML3 cells. Kind of test: OCI-AML3 cell growth inhibition, dose-response viability assay (CellTiterGlo). In kind it is cell-based. The settings on record: Homo sapiens, OCI-AML-3, 144 h, read-out: AML-3 EC50. The method, then: Cell dose-response viability assays. […] In the initial screen, compounds were added to seeded cells in serial dilutions (10 dilutions, 1:3, starting from […] 20 μM), in duplicates.
(§1) The potency of the compounds of Example 6 at inhibiting OCI-AML3 cell growth was tested using a procedure similar to that described for Mutritinib in Example 1. […] Murine MLL-AF9 leukemia cells (female cells) were generated by infection with VSV-G-pseudotyped MSCV MLL-AF9 IRES Puro (subcloned from a construct by Frédéric Barabé, Laval U, Quebec, QC, Canada).
(§2) Compounds were added to seeded cells in serial dilutions from 10 μM to 0.5 nM, in duplicates or quadruplicates.

In another test the test system is MLL-AF9 cells. Kind of test: MLL-AF9 leukemia cell growth inhibition, dose-response viability assay (CellTiterGlo). Format: cell-based, murine. The settings on record: Mus musculus, MLL-AF9, 120 h, read-out: MLL-AF9 EC50. The method, then:
as §1, §2
A general note: Cellular ATP, detected with luciferase, serves as a proxy for viable cell number.

Consider `Fc1ccc(/C=C/c2nc(COc3ccc(CCCCn4ccnn4)cc3)co2)cc1F` [Compound 121, (E)-4-((4-(4-(1H-1,2,3-triazol-1-yl)butyl)phenoxy)methyl)-2-(3,4-difluorostyryl)oxazole], for which the EC50 in the test on OCI-AML3 cells and in the test with MLL-AF9 cells was 0.05 to 0.1 µM each time.

For the molecule `Fc1cc(C(F)(F)F)ccc1/C=C/c1nc(COc2ccc(CCCCc3cccnn3)cc2)co1` [Compound 138, (E)-2-(2-fluoro-4-(trifluoromethyl)styryl)-4-((4-(4-(pyridazin-3-yl)butyl)phenoxy)methyl)oxazole], the EC50 with OCI-AML3 cells was < 0.05 µM; with MLL-AF9 cells it was 0.05 to 0.1 µM.

Take `Fc1cc(C(F)(F)F)ccc1/C=C/c1nc(COc2ccc(CCCCc3nccs3)cc2)co1` [Compound 107, (E)-2-(2-fluoro-4-(trifluoromethyl)styryl)-4-((4-(4-(thiazol-2-yl)butyl)phenoxy)methyl) oxazole]: the EC50 in the test on OCI-AML3 cells and with MLL-AF9 cells was 1 to 10 µM throughout.

Regarding `OC1(c2cn(CCCCc3ccc(OCc4coc(/C=C/c5ccc(C(F)(F)F)cc5)n4)cc3)nn2)CCCC1` [Compound 8, (E)-1-(1-(4-(4-((2-(4-(trifluoromethyl)styryl)oxazol-4-yl)methoxy)phenyl)butyl)-1H-1,2,3-triazol-4-yl)cyclopentanol], the EC50 in the test with OCI-AML3 cells fell in the range of 0.5 to 1 µM; in the test on MLL-AF9 cells, 0.1 to 0.5 µM.

On to `O=C(OCCCCc1ccc(OCc2coc(/C=C/c3ccc(C(F)(F)F)cc3)n2)cc1)N1CCOCC1` [Compound 35, (E)-4-(4-((2-(4-(trifluoromethyl)styryl)oxazol-4-yl)methoxy)phenyl)butyl morpholine-4-carboxylate], for which the EC50 with OCI-AML3 cells was 1 to 10 µM; in the test with MLL-AF9 cells, 0.5 to 1 µM.

In the case of `OCc1nnn(CCCCc2ccc(OCc3coc(/C=C/c4ccc(C(F)(F)F)cc4)n3)cc2)c1CO` [Compound 9, (E)-(1-(4-(4-((2-(4-(trifluoromethyl)styryl)oxazol-4-yl)methoxy)phenyl)butyl)-1H-1,2,3-triazole-4,5-diyl)dimethanol], the EC50 with OCI-AML3 cells fell in the range of 1 to 10 µM; with MLL-AF9 cells it was 0.5 to 1 µM.

`Fc1cc(C(F)(F)F)ccc1/C=C/c1nc(COc2ccc(CCCCn3cccn3)cc2)co1` [Compound 91, (E)-4-((4-(4-(1H-pyrazol-1-yl)butyl)phenoxy)methyl)-2-(2-fluoro-4-(trifluoromethyl)styryl) oxazole]: the concentration for a half-maximal effect (EC50) with OCI-AML3 cells lay within 1 to 10 µM; in the test on MLL-AF9 cells, 0.5 to 1 µM.

Consider `Brc1ccc(/C=C/c2nc(COc3ccc(CCCCn4ccnn4)cc3)co2)cc1` [Compound 33, (E)-4-((4-(4-(1H-1,2,3-triazol-1-yl)butyl)phenoxy)methyl)-2-(4-bromostyryl)oxazole], for which the EC50 with OCI-AML3 cells and with MLL-AF9 cells was 0.1 to 0.5 µM throughout.

`Fc1cc(C(F)(F)F)ccc1/C=C/c1nc(COc2ccc(CCCCc3cncnc3)cc2)co1` [Compound 108, (E)-2-(2-fluoro-4-(trifluoromethyl)styryl)-4-((4-(4-(pyrimidin-5-yl)butyl)phenoxy)methyl)oxazole]: the EC50 with OCI-AML3 cells and with MLL-AF9 cells was 1 to 10 µM in each case.

On to `Fc1ccc2cc(-c3nc(COc4ccc(CCCCn5ccnn5)cc4)co3)[nH]c2c1` [Compound 127, 4-((4-(4-(H-1,2,3-triazol-1-yl)butyl)phenoxy)methyl)-2-(6-fluoro-1H-indol-2-yl)oxazole], for which the EC50 in the test with OCI-AML3 cells and in the test with MLL-AF9 cells was < 0.05 µM throughout.

As for `Fc1cc(C(F)(F)F)ccc1/C=C/c1nc(COc2ccc(CCCCc3ccncc3)cc2)co1` [Compound 104, (E)-2-(2-fluoro-4-(trifluoromethyl)styryl)-4-((4-(4-(pyridin-4-yl)butyl)phenoxy)methyl)oxazole], the EC50 in the test on OCI-AML3 cells and in the test with MLL-AF9 cells was 1 to 10 µM throughout.

For `Fc1cc(/C=C/c2nc(COc3ccc(CCCCn4ccnn4)cc3)co2)cc(F)c1F` [Compound 120, (E)-4-((4-(4-(1H-1,2,3-triazol-1-yl)butyl)phenoxy)methyl)-2-(3,4,5-trifluorostyryl)oxazole], the values for the EC50 in the test on OCI-AML3 cells and in the test on MLL-AF9 cells were 0.1 to 0.5 µM and < 0.05 µM, respectively.

Take `CS(=O)(=O)NCCc1nccn1CCCCc1ccc(OCc2coc(/C=C/c3ccc(C(F)(F)F)cc3)n2)cc1` [Compound 54, (E)-N-(2-(1-(4-(4-((2-(4-(trifluoromethyl)styryl)oxazol-4-yl)methoxy)phenyl)butyl)-1H-imidazol-2-yl)ethyl)methanesulfonamide]: the EC50 in the test on OCI-AML3 cells and in the test on MLL-AF9 cells was 0.1 to 0.5 µM each time.

As to `FC(F)(F)c1ccc(/C=C/c2nc(COc3ccc(CCCn4ccnn4)cc3)co2)c(-n2nccn2)c1` [Compound 106, (E)-4-((4-(3-(1H-1,2,3-triazol-1-yl)propyl)phenoxy)methyl)-2-(2-(2H-1,2,3-triazol-2-yl)-4-(trifluoromethyl)styryl)oxazole], the half-maximal effective concentration (EC50) with OCI-AML3 cells and in the test on MLL-AF9 cells was 1 to 10 µM each time.

In the case of `O=[N+]([O-])c1ccc(/C=C/c2nc(COc3ccc(CCCCn4ccnc4)cc3)co2)c(F)c1` [Compound 99, (E)-4-((4-(4-(1H-imidazol-1-yl)butyl)phenoxy)methyl)-2-(2-fluoro-4-nitrostyryl)oxazole], the EC50 in the test on OCI-AML3 cells and with MLL-AF9 cells was 0.1 to 0.5 µM in each case.

Consider `OCc1ccc(/C=C/c2nc(COc3ccc(CCCCn4ccnn4)cc3)co2)cc1` [Compound 60, (E)-(4-(2-(4-((4-(4-(1H-1,2,3-triazol-1-yl)butyl)phenoxy)methyl)oxazol-2-yl)vinyl)phenyl)methanol], for which the EC50 with OCI-AML3 cells and in the test with MLL-AF9 cells was 1 to 10 µM in each case.

As for `C#Cc1ccc(/C=C/c2nc(COc3ccc(CCCCn4ccnn4)cc3)co2)cc1` [Compound 64, (E)-4-((4-(4-(1H-1,2,3-triazol-1-yl)butyl)phenoxy)methyl)-2-(4-ethynylstyryl)oxazole], the EC50 with OCI-AML3 cells lay in the range of 1 to 10 µM; with MLL-AF9 cells, 0.5 to 1 µM.

`O=[N+]([O-])c1cc(F)cc2cc(-c3nc(COc4ccc(CCCCn5ccnn5)cc4)co3)[nH]c12` [Compound 126, 4-((4-(4-(1H-1,2,3-triazol-1-yl)butyl)phenoxy)methyl)-2-(5-fluoro-7-nitro-1H-indol-2-yl)oxazole]: the EC50 is 1 to 10 µM with OCI-AML3 cells and > 10 µM in the test on MLL-AF9 cells.

For `Fc1ccc2cc(-c3nc(COc4ccc(CCCCn5ccnn5)cc4)co3)oc2c1` [Compound 142, 4-((4-(4-(1H-1,2,3-triazol-1-yl)butyl)phenoxy)methyl)-2-(6-fluorobenzofuran-2-yl)oxazole], the 50% effective concentration (EC50) lay within 0.5 to 1 µM with OCI-AML3 cells and 0.1 to 0.5 µM in the test with MLL-AF9 cells.

Consider `OCCc1cn(CCCCc2ccc(OCc3coc(/C=C/c4ccc(C(F)(F)F)cc4)n3)cc2)nn1` [Compound 4, (E)-2-(1-(4-(4-((2-(4-Trifluoromethyl)styryl)oxazol-4-yl)methoxy)phenyl)butyl-1H-1,2,3-triazol-4-yl)ethanol], for which the concentration giving a half-maximal response (EC50) in the test on OCI-AML3 cells is 1 to 10 µM; in the test with MLL-AF9 cells, 0.5 to 1 µM.

For the molecule `Fc1cc(C(F)(F)F)ccc1/C=C/c1nc(CSc2ccc(CCCn3ccnn3)cc2)co1` [Compound 132, (E)-4-(((4-(3-(1H-1,2,3-triazol-1-yl)propyl)phenyl)thio)methyl)-2-(2-fluoro-4-(trifluoromethyl)styryl)oxazole], the values for the half-maximal effective concentration (EC50) in the test with OCI-AML3 cells and in the test with MLL-AF9 cells were 1 to 10 µM and 0.5 to 1 µM, respectively.

Take `OCCc1nccn1CCCCc1ccc(OCc2coc(/C=C/c3ccc(C(F)(F)F)cc3)n2)cc1` [Compound 51, (E)-2-(1-(4-(4-((2-(4-(trifluoromethyl)styryl)oxazol-4-yl)methoxy)phenyl)butyl)-1H-imidazol-2-yl)ethanol]: the EC50 with OCI-AML3 cells fell in the range of 1 to 10 µM; in the test with MLL-AF9 cells it was 0.5 to 1 µM.

Regarding `NCCc1nccn1CCCCc1ccc(OCc2coc(/C=C/c3ccc(C(F)(F)F)cc3)n2)cc1` [Compound 52, (E)-2-(1-(4-(4-((2-(4-(trifluoromethyl)styryl)oxazol-4-yl)methoxy)phenyl)butyl)-1H-imidazol-2-yl)ethanamine], the EC50 in the test with OCI-AML3 cells and in the test with MLL-AF9 cells was 1 to 10 µM each time.

In the case of `Fc1cc(C(F)(F)F)ccc1/C=C/c1nc(Cc2ccc(CCCCn3ccnn3)cc2)co1` [Compound 134, (E)-4-(4-(4-(1H-1,2,3-triazol-1-yl)butyl)benzyl)-2-(2-fluoro-4-(trifluoromethyl)styryl)oxazole], the results for the EC50 in the test with OCI-AML3 cells and in the test on MLL-AF9 cells were 1 to 10 µM and 0.5 to 1 µM, respectively.

For `Fc1cc(Cl)ccc1/C=C/c1nc(COc2ccc(CCCCn3ccnn3)cc2)co1` [Compound 116, (E)-4-((4-(4-(1H-1,2,3-triazol-1-yl)butyl)phenoxy)methyl)-2-(4-chloro-2-fluorostyryl)oxazole], the EC50 in the test with OCI-AML3 cells and in the test on MLL-AF9 cells was 0.05 to 0.1 µM in each case.

Consider `O=C(CCCn1ccnn1)c1ccc(OCc2coc(/C=C/c3ccc(OC(F)(F)F)cc3)n2)cc1` [Compound 18, (E)-4-(1H-1,2,3-triazol-1-yl)-1-(4-((2-(4-(trifluoromethoxy)styryl)oxazol-4-yl)methoxy)phenyl)butan-1-one], for which the EC50 was 1 to 10 µM in the test with OCI-AML3 cells and 0.5 to 1 µM in the test on MLL-AF9 cells.

`C(=C\c1nc(COc2ccc(CCCCn3ccnn3)cc2)co1)/c1ccccn1` [Compound 84, (E)-4-((4-(4-(1H-1,2,3-triazol-1-yl)butyl)phenoxy)methyl)-2-(2-(pyridin-2-yl)vinyl)oxazole]: the EC50 with OCI-AML3 cells and in the test on MLL-AF9 cells was 1 to 10 µM each time.

For `Cc1nnn(CCCCc2ccc(OCc3coc(/C=C/c4ccc(C(F)(F)F)cc4F)n3)cc2)n1` [Compound 94, (E)-2-(2-fluoro-4-(trifluoromethyl)styryl)-4-((4-(4-(5-methyl-2H-tetrazol-2-yl)butyl)phenoxy)methyl)oxazole], the EC50 in the test on OCI-AML3 cells and in the test on MLL-AF9 cells was 1 to 10 µM throughout.
